Measurements published in PubChem BioAssay AID248 (DTP/NCI, 2004).
Where “and” joins values, the source holds several entries; their conditions need not be identical. Equal values may be shown once. Inconclusive results and toxic doses are left out. No stated cut-off is given here; in the data, active means T/C of 150% or more; inactive means T/C below 125%.

Test system: L1210 leukemia ip in BDF1 mice, survival T/C
Test: NCI In Vivo Anticancer Drug Screen. Data for tumor model L1210 Leukemia (intraperitoneal) in B6D2F1 (BDF1) mice
Conditions: endpoint: mean survival time, higher = longer survival
How it was run: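 Mice bearing the transplanted tumor received compound or vehicle. Survival of the treated group was divided by that of the vehicle-treated control group to give the ratio.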

[1] = dose: 100.0 mg/kg/injection, schedule: Q01DX001 (ip), vehicle: other
[2] = dose: 200.0 mg/kg/injection, schedule: Q01DX001 (ip), vehicle: other
[3] = dose: 400.0 mg/kg/injection, schedule: Q01DX001 (ip), vehicle: other
[4] = dose: 100.0 mg/kg/injection, schedule: Q01DX009 (ip), vehicle: saline
[5] = dose: 200.0 mg/kg/injection, schedule: Q01DX009 (ip), vehicle: saline
[6] = dose: 400.0 mg/kg/injection, schedule: Q01DX009 (ip), vehicle: saline
[7] = dose: 100.0 mg/kg/injection, schedule: Q04DX002 (ip), vehicle: Klucel (hydroxypropylcellulose) (HPC)
[8] = dose: 200.0 mg/kg/injection, schedule: Q04DX002 (ip), vehicle: Klucel (hydroxypropylcellulose) (HPC)
[9] = dose: 400.0 mg/kg/injection, schedule: Q04DX002 (ip), vehicle: Klucel (hydroxypropylcellulose) (HPC)
[10] = dose: 25.0 mg/kg/injection, schedule: Q01DX009 (ip), vehicle: saline
[11] = dose: 25.0 mg/kg/injection, schedule: Q04DX003 (ip), vehicle: saline
[12] = dose: 100.0 mg/kg/injection, schedule: Q01DX009 (ip), vehicle: Klucel (hydroxypropylcellulose) (HPC)
[13] = dose: 100.0 mg/kg/injection, schedule: Q04DX003 (ip), vehicle: Klucel (hydroxypropylcellulose) (HPC)
[14] = dose: 200.0 mg/kg/injection, schedule: Q01DX009 (ip), vehicle: Klucel (hydroxypropylcellulose) (HPC)
[15] = dose: 200.0 mg/kg/injection, schedule: Q04DX003 (ip), vehicle: Klucel (hydroxypropylcellulose) (HPC)
[16] = dose: 400.0 mg/kg/injection, schedule: Q01DX009 (ip), vehicle: Klucel (hydroxypropylcellulose) (HPC)
[17] = dose: 400.0 mg/kg/injection, schedule: Q04DX003 (ip), vehicle: Klucel (hydroxypropylcellulose) (HPC)

Measured: T/C

Cc1ccc(S(=O)(=O)N(c2ccccc2)C(C)C(=O)c2ccccc2)cc1 (configuration not stated)
inactive: [1] 104 % of control | [2] 92 % of control | [3] 95 % of control

C#CCN
inactive: dose: 100.0 mg/kg/injection, schedule: Q01DX001 (ip), vehicle: saline 103 % of control | [4] 94 % of control | dose: 200.0 mg/kg/injection, schedule: Q01DX001 (ip), vehicle: saline 102 % of control | [5] 96 % of control | dose: 400.0 mg/kg/injection, schedule: Q01DX001 (ip), vehicle: saline 102 % of control | [6] 93 % of control

O=[Se](c1ccccc1)c1ccccc1
inactive: dose: 25.0 mg/kg/injection, schedule: Q04DX002 (ip), vehicle: Klucel (hydroxypropylcellulose) (HPC) 103 % of control | dose: 50.0 mg/kg/injection, schedule: Q04DX002 (ip), vehicle: Klucel (hydroxypropylcellulose) (HPC) 94 % of control | [7] 87 % of control

Brc1cccc2nc(/C=C\c3ccccc3)ccc12
inactive: [1] 98 % of control | [2] 95 % of control | [3] 89 % of control

CCCCOC(=O)c1ccc(NC(=O)Nc2cc([N+](=O)[O-])ccc2F)cc1
inactive: [7] 93 % of control | [8] 104 % of control | [9] 93 % of control

CCOC(=O)c1[nH]c(C)c(CCCC(=O)O)c1C
inactive: dose: 75.0 mg/kg/injection, schedule: Q01DX001 (ip), vehicle: acetone 102 % of control | dose: 150.0 mg/kg/injection, schedule: Q01DX001 (ip), vehicle: acetone 104 % of control

CCCCCCCCNC12CC3CC(CC(C3)C1)C2
inactive: dose: 3.12 mg/kg/injection, schedule: Q01DX009 (ip), vehicle: saline 99 % of control | dose: 6.25 mg/kg/injection, schedule: Q01DX009 (ip), vehicle: saline 89 % of control | dose: 12.5 mg/kg/injection, schedule: Q01DX009 (ip), vehicle: saline 87 % of control | dose: 12.5 mg/kg/injection, schedule: Q04DX003 (ip), vehicle: saline 110 % of control | [10] 92 % of control | [11] 109 % of control

CC(NC(=O)OCc1ccccc1)C(=O)NC(CC(=O)O)C(=O)O (configuration not stated)
inactive: [10] 96 % of control | [11] 93 % of control | dose: 50.0 mg/kg/injection, schedule: Q01DX009 (ip), vehicle: saline 98 % of control | dose: 50.0 mg/kg/injection, schedule: Q04DX003 (ip), vehicle: saline 98 % of control | [4] 93 % of control | dose: 100.0 mg/kg/injection, schedule: Q04DX003 (ip), vehicle: saline 97 % of control

NS(=O)(=O)c1cc(Cl)ccc1Cl
inactive: dose: 100.0 mg/kg/injection, schedule: Q01DX001 (ip), vehicle: saline with Tween-80 88 % of control | dose: 200.0 mg/kg/injection, schedule: Q01DX001 (ip), vehicle: saline with Tween-80 94 % of control | dose: 400.0 mg/kg/injection, schedule: Q01DX001 (ip), vehicle: saline with Tween-80 91 % of control

OCC(O)C(O)C(O)C(O)C1SCCS1 (configuration not stated)
inactive: [12] 88 % of control | [13] 98 % of control and 103 % of control and 93 % of control | [14] 89 % of control | [15] 103 % of control and 93 % of control | [16] 100 % of control | [17] 115 % of control and 88 % of control

CCC(C)C(=NC)Nc1ccc(Cl)c(Cl)c1 (configuration not stated)
inactive: dose: 111.0 mg/kg/injection, schedule: Q01DX Z (ip), vehicle: methylcellulose (MC) 91 % of control

CC(C)(C[NH-])C[NH-].CC(C)(C[NH-])C[NH-].CC(C)(C[NH-])C[NH-].[Co]
inactive: dose: 48.0 mg/kg/injection, schedule: Q01DX Z (ip), vehicle: saline 121 % of control | dose: 73.0 mg/kg/injection, schedule: Q01DX Z (ip), vehicle: saline 121 % of control | dose: 110.0 mg/kg/injection, schedule: Q01DX Z (ip), vehicle: saline 119 % of control | dose: 165.0 mg/kg/injection, schedule: Q01DX Z (ip), vehicle: saline 116 % of control

CS(=O)(=O)OCC1CCCCC1COS(C)(=O)=O (configuration not stated)
inactive: [12] 107 % of control | [14] 104 % of control | [16] 93 % of control

CNc1nc2ncn(C)c2c(=O)[nH]1
inactive: [4] 97 % of control | [5] 98 % of control | [6] 98 % of control

NC(N)=N/N=C/C(Cl)(Cl)Cl
inactive: dose: 15.0 mg/kg/injection, schedule: Q01DX Z (ip), vehicle: saline 87 % of control | dose: 30.0 mg/kg/injection, schedule: Q01DX Z (ip), vehicle: saline 103 % of control | dose: 60.0 mg/kg/injection, schedule: Q01DX Z (ip), vehicle: saline 95 % of control | dose: 60.0 mg/kg/injection, schedule: Q01DX Z (oral), vehicle: saline 97 % of control | dose: 120.0 mg/kg/injection, schedule: Q01DX Z (oral), vehicle: saline 97 % of control | dose: 240.0 mg/kg/injection, schedule: Q01DX Z (oral), vehicle: saline 95 % of control | dose: 480.0 mg/kg/injection, schedule: Q01DX Z (oral), vehicle: saline 98 % of control

CCN(Cc1ccccc1)C(=S)NC1CCCCC1
inactive: dose: 100.0 mg/kg/injection, schedule: Q04DX002 (ip), vehicle: saline 96 % of control | dose: 200.0 mg/kg/injection, schedule: Q04DX002 (ip), vehicle: saline 96 % of control | dose: 400.0 mg/kg/injection, schedule: Q04DX002 (ip), vehicle: saline 100 % of control

N#Cc1cc(C#N)c(Cl)nc1N
inactive: [12] 94 % of control | [13] 97 % of control | [14] 95 % of control | [15] 95 % of control | [17] 106 % of control

CC1CN1C(=O)c1cc(C(=O)N2CC2C)cc(C(=O)N2CC2C)c1 (configuration not stated)
inactive: dose: 15.0 mg/kg/injection, schedule: Q01DX001 (ip), vehicle: saline 102 % of control | dose: 15.0 mg/kg/injection, schedule: Q04DX003 (ip), vehicle: saline 98 % of control | dose: 30.0 mg/kg/injection, schedule: Q01DX001 (ip), vehicle: saline 105 % of control | dose: 30.0 mg/kg/injection, schedule: Q04DX003 (ip), vehicle: saline 98 % of control | dose: 60.0 mg/kg/injection, schedule: Q01DX001 (ip), vehicle: saline 102 % of control | dose: 60.0 mg/kg/injection, schedule: Q04DX003 (ip), vehicle: saline 102 % of control

Cc1cc(Cl)ccc1OCC(=O)Oc1c(Cl)c(Cl)c(Cl)c(Cl)c1Cl
inactive: [7] 93 % of control | [8] 112 % of control

Cc1cc(N(C)C)ccc1C=O
inactive: [12] 94 % of control | [13] 97 % of control | [14] 105 % of control | [15] 105 % of control | [16] 103 % of control | [17] 98 % of control

O=C(O)C/C=C/c1ccccc1Br
inactive: dose: 100.0 mg/kg/injection, schedule: Q01DX001 (ip), vehicle: Klucel (hydroxypropylcellulose) (HPC) 91 % of control | dose: 200.0 mg/kg/injection, schedule: Q01DX001 (ip), vehicle: Klucel (hydroxypropylcellulose) (HPC) 101 % of control | dose: 400.0 mg/kg/injection, schedule: Q01DX001 (ip), vehicle: Klucel (hydroxypropylcellulose) (HPC) 95 % of control

O=C(O)c1ccc(=O)[nH]n1
inactive: [7] 115 % of control | [8] 93 % of control | [9] 89 % of control
